Structures can show the parent of a compound that is named as a salt.
Tested on: mice
Assay: SmartCube in vivo neuropharmacological behavioral assay
Conditions: for minimal effective dose: Mus musculus, ip, 0.25 h, dose having 50% or more total activity in SmartCube, i.p., read-out: MED (minimal effective dose); for AD: antidepressant (percent probability) / AG: analgesic (percent probability) / AP: antipsychotic (percent probability) / AX: anxiolytic (percent probability) / CE: cognitive enhancer (percent probability) / HA: hallucinogenic (percent probability) / MS: mood stabilizer (percent probability) / PS (percent probability) / SD: sedative hypnotic (percent probability) / SE: side effects (percent probability) / UN: uncharacterized CNS activity (percent probability) / XG: anxiogenic (percent probability): SmartCube, i.p. 15 min before test, result at the MED
Description: The compounds were evaluated for their CNS related properties (e.g., the treatment, prevention or diagnosis of CNS or CNS-related disorders and/or amelioration of symptoms) using neuropharmacological screening methods described in S. L. Roberts et al., Front. Neurosci. 2011, 5:103 (hereinafter referred to as “Roberts,” the contents of which are incorporated herein by reference in their entirety).
According to Roberts, intact systems are useful in detecting improvement in disease-relevant endpoints, because psychiatric diseases generally result from disorders of cell-cell communication or circuitry. The endpoints are typically behavioral in nature, often requiring human observation and interpretation. In order to test multiple compounds for behavioral effects relevant to neurological and psychiatric diseases and disorders, PsychoGenics, Inc. (Paramus, N.J. “PGI”) developed SmartCube®, an automated system in which behaviors of compound-treated mice are captured by digital video and analyzed with computer algorithms to facilitate testing of multiple compounds for behavioral effects relevant to psychiatric disease. (D. Brunner et al., Drug Discov. Today 2002, 7:S107-S112; Alexandrov et al., Eur. J. Pharmacol. 2015, 753:127-134; the contents of each of which are incorporated herein by reference in their entirety).
The SmartCube® system is described in Example 2.2 of U.S. Pat. No. 9,758,529 and Example 289 of WIPO Publication No. WO2018/023070, the contents of each of which are incorporated herein by reference in their entirety.
According to the present disclosure, compounds identified may be evaluated using the SmartCube® system. The results of such analysis correlate certain patterns or combinations of behaviors to CNS effects along a percent probability scale of 0-100 where zero (0) reflects the limit of quantitation (LOQ).
The compounds of the present disclosure were evaluated for their CNS related properties (e.g., the treatment, prevention or diagnosis of CNS or CNS-related disorders and/or amelioration of symptoms) using neuropharmacological screening methods described in S. L. Roberts et al., Front. Neurosci. 2011, 5:103 (hereinafter referred to as “Roberts,” the contents of which are incorporated herein by reference in their entirety).
The SmartCube® system described herein was utilized to compare the behavioral signature of a test compound to a database of behavioral signatures obtained using a large set of diverse reference compounds (including but not limited to antipsychotics, anxiolytics, antidepressants and bipolar disorder medicine), thereby predicting the neuropharmacological effects of a test compound by similarity to major classes of compounds. It produces an activity signature indicating the probability that the activity of the test compound at the administered dose matches a given class of neuropharmacological agents. The test compound is simultaneously compared against multiple classes of agents; thus, a separate probability is generated for each behavioral effect measured (such as but not limited to anxiolytic activity and analgesic activity).
The compounds of the present disclosure were dissolved in a mixture of Pharmasolve™ (N-methyl-2-pyrrolidone (NMP)) and were injected i.p. 15 min. before the behavioral test. For each compound, injections were administered at different dose levels (e.g., 0.3, 1, 3, 10 and 30 mg per kg (mpk)). A compound's minimal effective dose (MED; see Table 3) is a measure of the compound's potency. The MED was defined as the dose (in mpk) having 50% or more total activity in SmartCube®. For each behavioral effect measured, results at the MED are presented. CNS activities of the compounds were recorded (see Table 2). In Table 1, a key to the percent probabilities (probability ×100) for each behavioral effect (“X”) are defined provided, where LOQ is the limit of quantification.

SMILES	minimal effective dose [mg/kg]	AD: antidepressant (percent probability)	AG: analgesic (percent probability)	AP: antipsychotic (percent probability)	AX: anxiolytic (percent probability)	CE: cognitive enhancer (percent probability)	HA: hallucinogenic (percent probability)	MS: mood stabilizer (percent probability)	PS (percent probability)	SD: sedative hypnotic (percent probability)	SE: side effects (percent probability)	UN: uncharacterized CNS activity (percent probability)	XG: anxiogenic (percent probability)
CC([C@@H](C)F)N1C2CCCC1c1ccccc12 (stereo in doubt) [Compound 23, 12-(3-Fluorobutan-2-yl)-12-azatricyclo[6.3.1.0^2,7]dodeca-2,4,6-triene hydrochloride]	> 30	+ (LOQ ≤ X < 5%)	+ (LOQ ≤ X < 5%)	+ (LOQ ≤ X < 5%)	+ (LOQ ≤ X < 5%)	+ (LOQ ≤ X < 5%)	+ (LOQ ≤ X < 5%)	+ (LOQ ≤ X < 5%)	+ (LOQ ≤ X < 5%)	+ (LOQ ≤ X < 5%)	+ (LOQ ≤ X < 5%)	++ (5% ≤ X < 25%)	+ (LOQ ≤ X < 5%)
CC([C@H](C)F)N1C2CCCC1c1ccccc12 (stereo in doubt) [Compound 24, 12-(3-Fluorobutan-2-yl)-12-azatricyclo[6.3.1.0^2,7]dodeca-2,4,6-triene hydrochloride]	10 to 30	+++ (25% ≤ X < 50%)	+ (LOQ ≤ X < 5%)	+ (LOQ ≤ X < 5%)	+ (LOQ ≤ X < 5%)	+ (LOQ ≤ X < 5%)	+ (LOQ ≤ X < 5%)	+ (LOQ ≤ X < 5%)	++ (5% ≤ X < 25%)	+ (LOQ ≤ X < 5%)	+ (LOQ ≤ X < 5%)	+ (LOQ ≤ X < 5%)	+ (LOQ ≤ X < 5%)
CO[C@H]1CC[C@H]2c3ccccc3[C@@H]1N2C(C)C (stereo in doubt) [Compound 28, 9-methoxy-12-(propan-2-yl)-12-azatricyclo[6.3.1.0^2,7]dodeca-2,4,6-triene hydrochloride]	10 to 30	++ (5% ≤ X < 25%)	++ (5% ≤ X < 25%)	+ (LOQ ≤ X < 5%)	++ (5% ≤ X < 25%)	+ (LOQ ≤ X < 5%)	+ (LOQ ≤ X < 5%)	+ (LOQ ≤ X < 5%)	++ (5% ≤ X < 25%)	+ (LOQ ≤ X < 5%)	+ (LOQ ≤ X < 5%)	+++ (25% ≤ X < 50%)	+ (LOQ ≤ X < 5%)
C[C@H]1CC[C@@H]2N[C@H]1c1ccccc12 (stereo in doubt) [Compound 32, 9-Methyl-12-azatricyclo[6.3.1.0^2,7]dodeca-2,4,6-triene hydrochloride]	10 to 30	+ (LOQ ≤ X < 5%)	+ (LOQ ≤ X < 5%)	+ (LOQ ≤ X < 5%)	+ (LOQ ≤ X < 5%)	+ (LOQ ≤ X < 5%)	++++ (50% ≤ X < 100%)	+ (LOQ ≤ X < 5%)	++ (5% ≤ X < 25%)	+ (LOQ ≤ X < 5%)	+ (LOQ ≤ X < 5%)	+ (LOQ ≤ X < 5%)	+ (LOQ ≤ X < 5%)
CC(C)N1C2CC[C@H](C)C1c1ccccc12 (stereo in doubt) [Compound 33, 9-Methyl-12-(propan-2-yl)-12-azatricyclo[6.3.1.0^2,7]dodeca-2,4,6-triene hydrochloride]	1 to 10	++++ (50% ≤ X < 100%)	+ (LOQ ≤ X < 5%)	+ (LOQ ≤ X < 5%)	+ (LOQ ≤ X < 5%)	+ (LOQ ≤ X < 5%)	+ (LOQ ≤ X < 5%)	+ (LOQ ≤ X < 5%)	+ (LOQ ≤ X < 5%)	+ (LOQ ≤ X < 5%)	+ (LOQ ≤ X < 5%)	+ (LOQ ≤ X < 5%)	+ (LOQ ≤ X < 5%)
CO[C@@H]1CC[C@H]2c3ccccc3[C@@H]1N2C(C)C (stereo in doubt) [Compound 34, 9-Methoxy-12-(propan-2-yl)-12-azatricyclo[6.3.1.0^2,7]dodeca-2,4,6-triene hydrochloride]	10 to 30	++ (5% ≤ X < 25%)	+ (LOQ ≤ X < 5%)	+ (LOQ ≤ X < 5%)	++ (5% ≤ X < 25%)	+ (LOQ ≤ X < 5%)	+ (LOQ ≤ X < 5%)	+ (LOQ ≤ X < 5%)	+ (LOQ ≤ X < 5%)	+ (LOQ ≤ X < 5%)	+ (LOQ ≤ X < 5%)	++ (5% ≤ X < 25%)	+ (LOQ ≤ X < 5%)
c1ccc2c(c1)C1CCCC2N1 [Compound 1, 12-Azatricyclo[6.3.1.0^2,7]dodeca-2,4,6-triene]	10 to 30	++ (5% ≤ X < 25%)	++ (5% ≤ X < 25%)	+ (LOQ ≤ X < 5%)	++ (5% ≤ X < 25%)	+++ (25% ≤ X < 50%)	+ (LOQ ≤ X < 5%)	+ (LOQ ≤ X < 5%)	+ (LOQ ≤ X < 5%)	+ (LOQ ≤ X < 5%)	++ (5% ≤ X < 25%)	+ (LOQ ≤ X < 5%)	+ (LOQ ≤ X < 5%)
CC(C)N1C2CCCC1c1ccccc12 [Compound 2, 12-(Propan-2-yl)-12-azatricyclo[6.3.1.0^2,7]dodeca-2,4,6-triene]	1 to 10	++ (5% ≤ X < 25%)	++ (5% ≤ X < 25%)	+ (LOQ ≤ X < 5%)	+ (LOQ ≤ X < 5%)	+ (LOQ ≤ X < 5%)	+ (LOQ ≤ X < 5%)	+ (LOQ ≤ X < 5%)	+ (LOQ ≤ X < 5%)	+ (LOQ ≤ X < 5%)	+ (LOQ ≤ X < 5%)	+++ (25% ≤ X < 50%)	+ (LOQ ≤ X < 5%)
CN1C2CCCC1c1ccccc12 [Compound 3, 12-Methyl-12-azatricyclo[6.3.1.0^2,7]dodeca-2,4,6-triene hydrochloride]	10 to 30	+++ (25% ≤ X < 50%)	++ (5% ≤ X < 25%)	+ (LOQ ≤ X < 5%)	++ (5% ≤ X < 25%)	+ (LOQ ≤ X < 5%)	+ (LOQ ≤ X < 5%)	+ (LOQ ≤ X < 5%)	+ (LOQ ≤ X < 5%)	++ (5% ≤ X < 25%)	++ (5% ≤ X < 25%)	++ (5% ≤ X < 25%)	+ (LOQ ≤ X < 5%)
